Results as given in the supplement of paper PMC11061612.

Legend:
5637 (Bladder Carcinoma) = test: Bliss excess, mean over the matrix (fraction); higher = more synergy
Outline: (§1)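 After 24 hours at 37°C and 5% CO2 in 1536-well plates, cells in DMEM/F12 or RPMI plus 10% FBS received two-drug dose matrices for 72 hours. Viability came from CellTiter-Glo 2.0 luminescence and was scaled as inhibition, anchored at 0 by vehicle wells and at 1 by blank wells. Combination Emax is taken as the second-highest inhibition in the matrix, and Bliss excess as the observed combination effect less EA + EB − EA·EB, with EA and EB the single-agent effects.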

A204 (Rhabdomyosarcoma) = test: as above
Outline: as §1

[1] = system: A253 (Head and Neck Carcinoma); test: as above
Outline: as §1

[2] = system: CAL-27 (Oral Cavity Carcinoma); test: as above
Outline: as §1

[3] = system: CESS (Acute Myeloid Leukemia); test: as above
Outline: as §1

COLO-792 (Melanoma) = test: as above
Outline: as §1

[4] = system: DMS-53 (Small Cell Lung Carcinoma); test: as above
Outline: as §1

[5] = system: DU-4475 (Breast Carcinoma); test: as above
Outline: as §1

[6] = system: EPLC-272H (Other Solid Carcinomas); test: as above
Outline: as §1

EW-16 (Ewing's Sarcoma) = test: as above
Outline: as §1

[7] = system: G-402 (Other Solid Carcinomas); test: as above
Outline: as §1

[8] = system: GCT (Other Solid Carcinomas); test: as above
Outline: as §1

[9] = system: HCC1428 (Breast Carcinoma); test: as above
Outline: as §1

[10] = system: HT55 (Colorectal Carcinoma); test: as above
Outline: as §1

[11] = system: JIMT-1 (Breast Carcinoma); test: as above
Outline: as §1

[12] = system: JVM-2 (B-Cell Non-Hodgkin's Lymphoma); test: as above
Outline: as §1

[13] = system: Jurkat (T-Lymphoblastic Leukemia); test: as above
Outline: as §1

[14] = system: NCI-H716 (Colorectal Carcinoma); test: as above
Outline: as §1

[15] = system: TE-10 (Esophageal Squamous Cell Carcinoma); test: as above
Outline: as §1

[16] = system: G-402 (Other Solid Carcinomas); test: combination Emax (second highest fraction inhibited in the dose matrix, 72 h); higher = more inhibition; extreme values may be limits of the assay
Outline: as §1
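Throughout, for Bliss excess, mean over the matrix: after 72 h of two-drug dosing.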

Structure (SMILES)	Bliss excess (5637 (Bladder Carcinoma))	Bliss excess (A204 (Rhabdomyosarcoma))	Bliss excess [1]	Bliss excess [2]	Bliss excess [3]	Bliss excess (COLO-792 (Melanoma))	Bliss excess [4]	Bliss excess [5]	Bliss excess [6]	Bliss excess (EW-16 (Ewing's Sarcoma))	Bliss excess [7]	Bliss excess [8]	Bliss excess [9]	Bliss excess [10]	Bliss excess [11]	Bliss excess [12]	Bliss excess [13]	Bliss excess [14]	Bliss excess [15]	combination Emax [16]
CN(CCO)CC[C@H](CSc1ccccc1)Nc1ccc(S(=O)(=O)NC(=O)c2ccc(N3CCC([C@@H](O)c4ccccc4-c4ccc(Cl)cc4)CC3)cc2)cc1S(=O)(=O)C(F)(F)F [AZD4320] + Cc1cc2ncnn2cc1Nc1ncc2c(n1)n(C1CCOCC1)c(=O)n2C [AZD7648] (first compound max 1 µM, 7x7, partner max 10 µM)	-0.0359	-0.0551	-0.0253	-0.0355	-0.0106	0.0951	0.0475	0.0627	-0.0318	-0.0475	-0.0144	-0.0504	0.025	-0.0404	-0.0513	-0.0111	0.0134	-0.0253	-0.0276	0.475
Cc1cc2ncnn2cc1Nc1ncc2c(n1)n(C1CCOCC1)c(=O)n2C [AZD7648] + C=CCn1c(=O)c2cnc(Nc3ccc(N4CCN(C)CC4)cc3)nc2n1-c1cccc(C(C)(C)O)n1 [AZD1775] (first compound max 10 µM, partner max 1 µM)	0.0026	-0.0041	0.0493	0.0108	0.028	0.0087	0.0149	-0.051	0.0042	-0.0471	0.0111	-0.0309	0.0179	-0.0027	0.0463	-0.0458	0.0183	0.0448	0.0053	0.543
Cc1cc2ncnn2cc1Nc1ncc2c(n1)n(C1CCOCC1)c(=O)n2C [AZD7648] + CCN(CCO)CCCOc1ccc2c(Nc3cc(CC(=O)Nc4cccc(F)c4)[nH]n3)ncnc2c1 [AZD2811] (first compound max 10 µM, 7x7, partner max 1 µM)	0.0149	0.0034	0.0411	0.0107	0.0195	-0.0769	-0.0061	0.0035	0.0143	0.0436	0.0421	0.0625	0.0436	-0.0003	-0.0141	0.0382	-0.01	0.0292	0.043	0.663
Cc1cc2ncnn2cc1Nc1ncc2c(n1)n(C1CCOCC1)c(=O)n2C [AZD7648] + CN(C)CCCOc1ccc(-c2ccc3ncc4c(c3c2)n(C2CCOCC2)c(=O)n4C)cn1 [AZD0156] (first compound max 10 µM, 7x7, partner max 1 µM)	-0.0004	-0.0372	0.0149	0.0004	-0.0013	0.036	-0.0087	-0.0209	-0.0251	0.0073	-0.0271	0.0042	-0.0052	0.0035	0.0217	-0.0297	0.0382	0.0563	-0.0023	0.51
Cc1cc2ncnn2cc1Nc1ncc2c(n1)n(C1CCOCC1)c(=O)n2C [AZD7648] + C[C@@H]1COCCN1C2=NC(=NC(=C2)C3(CC3)[S@](=N)(=O)C)C4=C5C=CNC5=NC=C4 [AZD6738] (first compound max 10 µM, 7x7, partner max 10 µM)	-0.0289	-0.0105	0.0402	-0.0327	0.0058	0.0187	0.0179	0.0019	-0.0093	0.0269	0.0185	0.0097	-0.0086	0.0268	-0.0238	-0.0555	0.011	0.0287	0.0327	0.602
Cc1cc2ncnn2cc1Nc1ncc2c(n1)n(C1CCOCC1)c(=O)n2C [AZD7648] + O=C(c1cc(Cc2n[nH]c(=O)c3ccccc23)ccc1F)N1CCN(C(=O)C2CC2)CC1 [Olaparib] (first compound max 10 µM, 7x7, partner max 10 µM)	-0.0198	-0.0802	-0.0419	-0.0448	-0.0101	-0.0435	-0.0266	0.0289	0.0608	-0.0484	-0.0814	-0.0488	-0.0562	-0.0497	-0.0191	-0.0275	0.108	-0.0056	0.011	0.41
COc1cc2c(cc1OCCCCCOc1cc3c(cc1OC)C(=O)N1C=C(C)C[C@H]1C=N3)N=C[C@@H]1CC(C)=CN1C2=O [SG3199] + O=C(c1cc(Cc2n[nH]c(=O)c3ccccc23)ccc1F)N1CCN(C(=O)C2CC2)CC1 [Olaparib] (first compound max 0.001 µM, 7x7, partner max 10 µM)	-0.0278	-0.0686	-0.0426	-0.0664	-0.0156	-0.0373	-0.0259	0.0741	-0.0023	-0.0066	-0.0289	-0.0325	-0.0676	-0.0358	-0.0188	-0.0219	0.0874	-0.0322	-0.0402	0.364
